Where a name gives a salt, the structure may show the parent alone.
Assays:
Assay type in all cases: binding
[1] = biological target: T1, EcAII, type II L-asparaginase from Escherichia coli (Escherichia coli, UniProt P00805); test: intact-protein LC/MS (electrospray); settings: pH 4.0, 200 mM citrate; no L-Asp; covalent (addition of citrate minus water)
T1 construct: gene ansB; Met-(His)6-EcAII, N-terminal tag kept; secreted from E. coli triple asparaginase knockout
T1 sequence (P00805 23-348): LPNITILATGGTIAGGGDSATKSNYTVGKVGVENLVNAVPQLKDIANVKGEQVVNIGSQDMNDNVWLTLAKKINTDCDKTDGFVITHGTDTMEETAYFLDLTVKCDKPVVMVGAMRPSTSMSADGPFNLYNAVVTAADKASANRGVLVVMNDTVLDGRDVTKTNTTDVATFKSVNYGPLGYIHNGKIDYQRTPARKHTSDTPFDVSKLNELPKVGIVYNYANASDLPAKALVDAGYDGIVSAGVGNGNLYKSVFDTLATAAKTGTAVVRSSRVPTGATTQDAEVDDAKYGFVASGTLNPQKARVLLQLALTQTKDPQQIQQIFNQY

[2] = biological target: T2, EcAI (AnsA), type I L-asparaginase from E. coli (Escherichia coli, UniProt P0A962); test: X-ray crystal structure, re-refined from deposited data (2p2n); settings: pH about 4.0 (0.1 M citrate, 1 M NaCl); covalent, acyl-enzyme ester to Thr14 OG1 in active site; re-interpretation of ligand first modelled as L-Asp/L-Asn
T2 construct: four protomers (two dimers) in the asymmetric unit
T2 sequence (P0A962 1-338): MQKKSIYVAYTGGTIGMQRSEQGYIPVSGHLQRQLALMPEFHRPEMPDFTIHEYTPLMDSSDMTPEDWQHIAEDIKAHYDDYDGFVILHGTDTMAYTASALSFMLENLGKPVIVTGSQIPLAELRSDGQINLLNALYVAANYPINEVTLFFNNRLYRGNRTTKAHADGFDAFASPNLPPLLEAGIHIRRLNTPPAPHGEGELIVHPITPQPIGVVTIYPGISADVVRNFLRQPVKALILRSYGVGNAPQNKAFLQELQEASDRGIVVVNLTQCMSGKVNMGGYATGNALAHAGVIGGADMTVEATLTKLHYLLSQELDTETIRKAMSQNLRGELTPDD

[3] = biological target: T3, EcAII, type II L-asparaginase from Escherichia coli (Escherichia coli, UniProt P00805, D112T/K184T); test: X-ray crystal structure; settings: pH 5.0 (also pH 5.6, 6nx7; pH 6.2, 6nx8), 0.17 M citrate, 10 mM L-Asn, 293 K; non-covalent, one of two active sites (protomer B); stabilised by His6-tag of symmetry mate, called an artifact
T3 construct: gene ansB; Met-(His)6-EcAII, N-terminal tag kept; secreted from E. coli triple asparaginase knockout

[4] = biological target: T1, EcAII, type II L-asparaginase from Escherichia coli; test: X-ray crystal structure; settings: pH 7.0, 0.17 M ammonium citrate, 17% PEG3350, 100 K; non-covalent, all four active sites

T3 sequence (P00805 23-348 D112T/K184T): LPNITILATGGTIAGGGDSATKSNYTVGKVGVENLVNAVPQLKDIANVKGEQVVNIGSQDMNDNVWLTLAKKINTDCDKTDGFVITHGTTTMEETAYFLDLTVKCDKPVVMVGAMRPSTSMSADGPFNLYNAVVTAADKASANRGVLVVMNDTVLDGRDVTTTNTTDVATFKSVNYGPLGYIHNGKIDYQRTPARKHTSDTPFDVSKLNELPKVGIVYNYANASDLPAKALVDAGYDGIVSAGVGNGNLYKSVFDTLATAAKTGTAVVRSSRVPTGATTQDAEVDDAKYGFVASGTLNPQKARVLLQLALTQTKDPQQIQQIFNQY

SMILES: O=C(O)CC(O)(CC(=O)O)C(=O)O [CIT, citrate]
- % abundance of adduct (+174.0) at 200 mM citrate [1]: 38.1%
- X-ray crystal structure, re-refined from deposited data (2p2n) [2]: substitution by citrate anions covalently linked to the side chain of Thr14
- X-ray crystal structure [3]: maps indicated clearly the presence of a citrate anion in this site
- X-ray crystal structure [4]: The shape of this peak could be unambiguously interpreted as a citrate anion

Source: article PMC6667453, “Opportunistic complexes of E. coli L-asparaginases with citrate anions” (Scientific Reports, 2019)
